Assay results as given in patent publication US10233221B2, “Peptide having eight amino acid sequences derived from cage and retaining anticancer activity and activity to promote anticancer drug sensitivity of anticancer drug-resistant cancer cells” (L-Base Co., Ltd., priority 2014, dated 2019).
Where no end group is shown, it is not given here. [ ]: non-standard residue; d: D form. The star is where a group is joined. FITC = O=C1OC2(c3ccc(O)cc3Oc3cc(O)ccc32)c2ccc(NC(=S)*)cc21

How the values were obtained:
[1] = test system: Celastrol-resistant liver cancer cell line (SNU387^R); assay: Western blotting of PARP and FAK cleavage; assay type: cell-based; settings: 1 μM peptide 24 hours, then 1 μM and 10 μM Celastrol and Taxol 1 hour, vs cell lines without peptide
Protocol: (§1) In order to examine the effects of AQTGTGKT (SEQ ID NO: 1 synthesized from L-amino acid) or D-AQTGTGKT (SEQ ID NO: 1 synthesized from D-amino acid) peptides on the anticancer drug resistance of cancer cells, MTT assay and western blotting were conducted by a known method.
(§2) Liver cancer cell line (SNU387^R) and melanoma cell line (Malme3M^R), which show resistance to Celastrol as an anticancer drug, were transfected with 1 μM AQTGTGKT (SEQ ID NO: 1 synthesized from L-amino acid) or D-AQTGTGKT (SEQ ID NO: 1 synthesized from D-amino acid) peptide for 24 hours, respectively, and then treated with 1 μM and 10 μM Celastrol and Taxol for 1 hour.

[2] = test system: Celastrol-resistant melanoma cell line (Malme3M^R); assay: Western blotting of PARP and FAK cleavage; assay type: cell-based; settings: 1 μM peptide 24 hours, then 1 μM and 10 μM Celastrol and Taxol 1 hour, vs cell lines without peptide
Protocol: as §1, §2

[3] = test system: GSK3β ser9 and Cyclin D1 in Malme3M^R; assay: Western blotting of GSK3β ser9 and Cyclin D1; assay type: cell-based
Protocol: (§3) In order to examine the intercellular migration and action mechanisms of AQTGTGKT (SEQ ID NO: 1 synthesized from L-amino acid) and D-AQTGTGKT (SEQ ID NO: 1 synthesized from D-amino acid) peptides, each of the peptides was prepared in a form of being conjugated to fluorescein isothiocyanate (FITC), and used to perform transfection, immunofluorescence, immunoprecipitation, and western blotting by known methods.
(§4) The same cell lines were transfected with AQTGTGKT (SEQ ID NO: 1 synthesized from L-amino acid) or FITC-AQTGTGKT (FITC-SEQ ID NO: 1) peptide, and then subjected to immunoprecipitation and western blotting.
(§5) In addition, the cell lines were transfected with AQTGTGKT (SEQ ID NO: 1 synthesized from L-amino acid) or D-AQTGTGKT (SEQ ID NO: 1 synthesized from D-amino acid) peptide, and then subjected to immunoprecipitation and western blotting.

[4] = test system: GSK3β ser9 and Cyclin D1 in SNU387^R; assay: Western blotting of GSK3β ser9 and Cyclin D1; assay type: cell-based
Protocol: as §3, §4, §5

[5] = target: T1, CAGE and GSK3β proteins in Malme3M^R (Homo sapiens, UniProt Q86TM3); assay: Immunoprecipitation of CAGE and GSK3β; assay type: cell-based
T1 construct: Celastrol-resistant liver cancer cell line (SNU387^R) and melanoma cell line (Malme3M^R) having high expression of CAGE; endogenous in cells; host or cells: Malme3M^R (Celastrol-resistant melanoma cell line)
Protocol: as §3, §5

[6] = target: T2, CAGE and GSK3β proteins in SNU387^R (Homo sapiens, UniProt Q86TM3); assay: Immunoprecipitation of CAGE and GSK3β; assay type: cell-based
T2 construct: Celastrol-resistant liver cancer cell line (SNU387^R) and melanoma cell line (Malme3M^R) having high expression of CAGE; endogenous in cells; host or cells: SNU387^R (Celastrol-resistant liver cancer cell line)
Protocol: as §3, §5

[7] = test system: Celastrol-resistant melanoma cell line (Malme3MR); assay: Wound-healing migration assay; assay type: cell-based; settings: 24-48 hours
Protocol: (§6) In order to examine the effects of AQTGTGKT (SEQ ID NO: 1 synthesized from L-amino acid) and D-AQTGTGKT (SEQ ID NO: 1 synthesized from D-amino acid) peptides on the migration, invasiveness, and angiogenesis inducing ability of anticancer drug-resistant cell line, the invasion assay, wound-healing migration assay, and intravital microscopy were carried out by conventional methods using Celastrol-resistant melanoma cell line (Malme3M^R).
(§7) Celastrol-resistant melanoma cell line (Malme3MR) or Taxol-resistant melanoma cell line (Malme3M^R-Taxol) was cultured in 24-well culture dishes, and wounded using a 1 ml tip by a conventional method, and then the migrating cells were counted for 24-48 hours.

[8] = test system: Taxol-resistant melanoma cell line (Malme3M^R-Taxol); assay: Wound-healing migration assay; assay type: cell-based; settings: 24-48 hours
Protocol: as §6, §7

[9] = test system: angiogenesis inducing ability of Malme3M^R; assay: Angiogenesis, intravital microscopy; assay type: in vivo; settings: conditioned media of treated Malme3M^R mixed with Matrigel, injected into BALB/C mice
Protocol: as §6
After Celastrol-resistant melanoma cell line (Malme3M^R) was treated with AQTGTGKT (SEQ ID NO: 1 synthesized from L-amino acid) or D-AQTGTGKT (SEQ ID NO: 1 synthesized from D-amino acid) peptide, the obtained conditioned media were mixed with Matrigel and then injected into BALB/C mice, and then the mice were injected with FITC-dextran to examine the effect on angiogenesis using intravital microscopy.

Malme3M^R = assay: Intracellular migration, fluorescent microscope; assay type: cell-based; settings: 24 hours after transfection
Protocol: as §3
(§8) Celastrol-resistant liver cancer cell line (SNU387^R) and melanoma cell line (Malme3M^R) having high expression of CAGE were transfected with FITC-AQTGTGKT (FITC-SEQ ID NO: 1) peptide, and after 24 hours, the cell lines were examined under a fluorescent microscope.

SNU387^R = assay: Intracellular migration, fluorescent microscope; assay type: cell-based; settings: 24 hours after transfection
Protocol: as §3, §8

Malme3M^R tumor tissues = assay: Tumor-specific migration (in vivo homing); design: species or system immunodeficient mice; settings: 12 hours after tail vein injection; in vivo imaging of extracted tissues
Protocol: In order to examine that the AQTGTGKT (SEQ ID NO: 1 synthesized from L-amino acid) peptide is a tumor-specific peptide, experiments were carried out by a known method using FITC-AQTGTGKT (FITC-SEQ ID NO: 1) and anticancer drug-resistant cell lines and immunodeficient mice.
Celastrol-resistant melanoma cell line (Malme3M^R) having high expression of CAGE was injected into immunodeficient mice by a known method to induce tumors, and then 12 hours after FITC-AQTGTGKT (FITC-SEQ ID NO: 1) was injected into the tail vein, normal tissues (brain, heart, spleen, Liver, lung, etc.) and tumor tissues were extracted and examined using a small in vivo imaging system.

Malme3M^R tumor = assay: Tumorigenicity of anticancer drug-resistant cell line in nude mouse; assay type: in vivo; settings: 10 μg/mouse tail vein, 6 times every 3 days
Protocol: In order to examine that the AQTGTGKT (SEQ ID NO: 1 synthesized from L-amino acid) is a tumor-specific peptide, experiments were carried out by a known method using an anticancer drug-resistant cell line and an immune-deficient mouse.
Celastrol-resistant melanoma cell line (Malme3M^R) having high expression of CAGE was injected into the side of a nude mouse at 1×10^6 cells. When a tumor was grown to have a measurable tumor size, the tumor size was measured using a digital gauge at regular intervals, and the tumor size was calculated using a known formula (widest length×shortest length×0.5).
After the tumor was induced by the above method, AQTGTGKT (SEQ ID NO: 1 synthesized from L-amino acid) peptide (10 μg/mouse) was injected into the tail vein alone or in combination with Celastrol or Taxol anticancer drug in a total of 6 times every 3 days for 2 weeks, while the size of the tumor was measured.

[10] = test system: CAGE-GSK3β, GSK3β ser9, cyclin D1, MDR1 in tumor tissues; assay: Western blotting and immunoprecipitation of tumor tissues; assay type: in vivo, nude mouse
Protocol: After the above experiments, the protein expression and activation were examined. The tumor tissues were disrupted by liquid nitrogen according to a known method, reacted with a dissolution buffer on ice for 30 minutes, and centrifuged at 13,000 rpm for 15 minutes, and then the supernatant solution was collected as a protein sample. Thereafter, this protein sample was subjected to western blotting and immunoprecipitation to examine the protein expression and activation and the interconnection of proteins.

[11] = test system: Malme3M^R tumor metastasis; assay: Lung metastasis of anticancer drug-resistant cell line in nude mouse; assay type: in vivo; settings: 10 μg/mouse tail vein, 6 times every 3 days from day 4
Protocol: In order to examine the effect of AQTGTGKT (SEQ ID NO: 1 synthesized from L-amino acid) peptide on tumor metastatic ability of an anticancer drug-resistant cell line, long metastasis was carried out using the anticancer drug-resistant cell line and an immunodeficient mouse by a known method.
Celastrol-resistant melanoma cell line (Malme3M^R) having high expression of CAGE was injected into the tail vein of a nude mouse at 1×10^6 cells, and then the metastasis of a tumor into the lung was induced for 2-3 weeks. From day 4 after tumor cell injection, AQTGTGKT (SEQ ID NO: 1 synthesized from L-amino acid) peptide (10 μg/mouse) was injected into the tail vein in a total of 6 times every 3 days, and the lung tissue was excised and the number of tumor nodules was measured by a known method.

[12] = test system: CAGE-GSK3β, GSK3β ser9, Cyclin D1 in lung tissues; assay: Immunoprecipitation and western blotting of lung tissues; assay type: in vivo, nude mouse
From the text: After the protein was collected from the lung tissues by a conventional method, the protein expression and activation patterns were examined through immunoprecipitation and western blotting.

T2 sequence (Q86TM3 whole entry): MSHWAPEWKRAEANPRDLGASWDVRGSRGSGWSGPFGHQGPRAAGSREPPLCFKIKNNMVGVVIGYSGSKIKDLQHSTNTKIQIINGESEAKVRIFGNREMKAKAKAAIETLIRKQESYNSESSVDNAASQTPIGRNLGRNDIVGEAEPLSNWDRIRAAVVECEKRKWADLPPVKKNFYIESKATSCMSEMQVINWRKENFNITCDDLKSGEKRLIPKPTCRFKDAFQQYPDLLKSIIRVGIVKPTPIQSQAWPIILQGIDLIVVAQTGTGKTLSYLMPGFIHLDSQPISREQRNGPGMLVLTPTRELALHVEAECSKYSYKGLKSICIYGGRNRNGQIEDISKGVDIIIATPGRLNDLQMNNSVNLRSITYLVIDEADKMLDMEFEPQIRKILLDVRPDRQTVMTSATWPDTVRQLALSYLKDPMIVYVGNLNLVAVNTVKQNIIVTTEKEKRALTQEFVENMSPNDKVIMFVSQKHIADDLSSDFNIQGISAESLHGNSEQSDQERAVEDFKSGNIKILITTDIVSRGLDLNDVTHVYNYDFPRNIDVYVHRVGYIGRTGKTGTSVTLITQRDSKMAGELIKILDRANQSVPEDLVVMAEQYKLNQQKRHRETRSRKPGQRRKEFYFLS
T1 sequence (Q86TM3 whole entry): as above

Row | interconnection of CAGE and GSK3β proteins [5] | interconnection of CAGE and GSK3β proteins [6] | Substance | cleavage of PARP and FAK proteins [1] | cleavage of PARP and FAK proteins [2] | dephosphorylation of GSK3β ser9 [3] | expression of Cyclin D1 [3] | dephosphorylation of GSK3β ser9 [4] | expression of Cyclin D1 [4] | cell migration [7] | cell migration [8] | angiogenesis inducing ability [9] | also measured
1 | inhibited | inhibited | D-AQTGTGKT ([dA][dQ][dT]G[dT]G[dK][dT]; listed as Homo sapiens) | significantly observed | significantly observed | inhibited | inhibited | inhibited | inhibited | inhibited | inhibited | remarkably reduced | 
2 |  |  | FITC-AQTGTGKT ({FITC}-AQTGTGKT; listed as Homo sapiens) [AQTGTGKT peptide conjugated to fluorescein isothiocyanate (FITC)] |  |  | inhibited | inhibited | inhibited | inhibited |  |  |  | migration of peptide into the cells (Malme3M^R): migrated into the cells; migration of peptide into the cells (SNU387^R): migrated into the cells; migration to tumor tissues vs normal tissues (Malme3M^R tumor tissues): migrated specifically to tumor tissues
3 | inhibited | inhibited | AQTGTGKT (listed as Homo sapiens) | significantly observed | significantly observed | inhibited | inhibited | inhibited | inhibited | inhibited | inhibited | remarkably reduced | tumorigenicity (tumor size) (Malme3M^R tumor; alone): reduced; anticancer drug resistance (tumor size) (Malme3M^R tumor; in combination with Celastrol or Taxol): reduced; GSK3β ser9 dephosphorylation [10]: reductions; cyclin D1 expression [10]: reductions; expression of MDR1 [10]: inhibited; interconnection of CAGE and GSK3β proteins [10]: inhibited; tumor metastasis (number of lung tumor nodules) [11]: reduced; dephosphorylation of GSK3β ser9 [12]: inhibited; expression of Cyclin D1 [12]: inhibited; interconnection of CAGE and GSK3β proteins [12]: inhibited
